target: Mouse TAAR 1 (Mus musculus, UniProt Q923Y8); assay: cAMP Biotrak EIA functional assay in HEK293 cells stably expressing mTAAR1; assay type: cell-based; conditions: not given
Excerpt: Stable cell lines: For the generation of stably transfected cell lines HEK cells were transfected with the pIRES-NEO2 expression vectors of the respective TAARs by using Lipofectamin 2000 transfection reagent and Optimem 1 reduced serum medium with Glutamax (Invitrogen Cat. # 51985-026) following the recommendations given in the Lipofectamine 2000 datasheet. After 24 hr post transfection cells were trypsinated and transferred into 90 mm tissue culture dishes (Nunc) at dilutions between 1:10-1:300 in culture medium supplemented with 1 mg/ml G418 which was renewed on a daily basis. […] Picking of clones was performed by detaching the entire clone from the culture dish using a 1 ml Gilson pipette, trypsinizing the clone in a 1.5 ml Eppendorf cup using Trypsin/EDTA (Invitrogen Cat. # 25300-062) and plating them into a 48 well dish, from where the cells were subsequently expanded by transferring them to increasing culture surface areas (48 well—12 well—60 mm etc.). Whenever cells were transferred to a new plate they were carefully trypsinized. As soon as single clones were selected, the concentration of G418 in the culture medium was reduced to 500 µg/ml.

Chain of Mouse TAAR 1 (Q923Y8 whole entry): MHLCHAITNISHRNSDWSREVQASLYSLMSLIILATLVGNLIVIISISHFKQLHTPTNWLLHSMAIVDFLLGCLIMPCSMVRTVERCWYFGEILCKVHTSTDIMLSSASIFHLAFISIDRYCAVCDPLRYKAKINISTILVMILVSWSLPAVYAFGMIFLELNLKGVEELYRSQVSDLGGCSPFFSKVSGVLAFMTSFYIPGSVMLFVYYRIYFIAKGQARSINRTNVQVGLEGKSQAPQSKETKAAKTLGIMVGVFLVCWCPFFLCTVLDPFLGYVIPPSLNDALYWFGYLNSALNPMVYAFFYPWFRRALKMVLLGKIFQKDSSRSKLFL

NCCc1c[nH]c2ccc(O)cc12 [Serotonin, 5-HT, Serotonin] was tested. Which EC50 did it give?
The EC50 was greater than 50 µM.

Which EC50 does the source give for NCCc1c[nH]c2ccccc12 [TRY, tryptamine] here?
Its EC50 is 1.99 µM.

With NCCc1ccccc1 [β-PEA, β-phenylethylamine] as the compound, how does the EC50 read?
The EC50 was 0.66 µM.

same assay, conditions: maximal response as percentage of the maximal cAMP levels induced by p-TYR; HEK293 cells stably expressing mTAAR1

For NCC(O)c1ccc(O)cc1 (stereo not drawn) [OCT, octopamine], which “Max (96)” value is on record?
The value was 100 percentage.

same assay, conditions: read-out: EC50

How did the EC50 turn out when NCCc1ccc(O)c(O)c1 [Dopamine, dopamine] was run?
The EC50 was 11.8 µM.

NCCc1c[nH]cn1 [Histamine, histamine] was tested. Which EC50 did it give?
The EC50 was greater than 50 µM.

Which EC50 does the source give for CNCCc1ccccc1 [N-methyl-β-PEA] here?
The EC50 was 0.15 µM.

NC[C@H](O)c1ccc(O)c(O)c1 [Norepinephrine, norepinephrine] was tested. Which EC50 did it give?
Its EC50 is greater than 50 µM.

NCC(O)c1ccc(O)cc1 (stereo not drawn) [OCT, octopamine] was tested. Which EC50 did it give?
The EC50 was 19.7 µM.

Source: US20060008880A1, “Mouse trace amine associated receptors and polypeptides” (priority 2004, published 2006)
